Assay results from ChEMBL document CHEMBL5543128, “Recent Discovery and Development of Inhibitors that Target CDK9 and Their Therapeutic Indications” (J Med Chem, 2024).

How the values were obtained:
[1] = biological target: T1, Cyclin-dependent kinase 9 (Homo sapiens, UniProt P50750); test: Inhibition of CDK9 (unknown origin)
[2] = biological target: Cyclin-dependent kinase 5 (Homo sapiens, UniProt Q00535)
[3] = Inhibition of CDK2/CYCA (unknown origin); design: species or system Homo sapiens
[4] = biological target: Casein kinase I isoform alpha (Homo sapiens, UniProt P48729); test: Binding affinity to CK1alpha (unknown origin) assessed as dissociation constant
[5] = biological target: T1, Cyclin-dependent kinase 9; test: Binding affinity to CDK9 (unknown origin) assessed as dissociation constant
MOLM-13 [6] = test: Antiproliferative activity against human MOLM-13 cells assessed as reduction in cell viability incubated for 72 hrs by MTT assay; assay type: functional, cell-based; conditions: MOLM-13, 72 h
CDK7/Cyclin H/MNAT1 = CDK7/Cyclin H/MNAT1 (Homo sapiens, UniProt P50613); test: Inhibition of CDK7/CycH/MAT1 (unknown origin); assay type: protein-complex assay
[7] = biological target: Cyclin-dependent kinase 2/cyclin E1 (Homo sapiens, UniProt P24941); test: Inhibition of CDK2/cyclin E1 (unknown origin); assay type: protein-complex assay
MOLM-13 [8] = test: cells; conditions: Homo sapiens, MOLM-13, 96 h
CDK9/cyclin T1 [9] = biological target: T2, CDK9/cyclin T1 (Homo sapiens, UniProt P50750); test: Inhibition of CDK9/cyclin T1 (unknown origin); assay type: protein-complex assay
A498 = test: Antiproliferative activity against human A498 cells assessed as reduction in cell viability incubated for 72 hrs by MTT assay; assay type: functional, cell-based; conditions: A498, 72 h
[10] = Antiproliferative activity against human A-293 cells assessed as reduction in cell viability measured for 48 hrs by MTT assay; assay type: toxicity, cell-based; conditions: A-293 (AD293) cells
OCI-AML-3 = test: Antiproliferative activity against human OCI-AML-3 assessed as reduction in cell viability incubated for 48 hrs by CellTiter-Glo cell vaibility assay; assay type: functional, cell-based; conditions: OCI-AML-3, 48 h
[11] = biological target: Cyclin-dependent kinase 4 (Homo sapiens, UniProt P11802); test: Inhibition of CDK4 (unknown origin)
[12] = biological target: T3, Protein cereblon/Cyclin-dependent kinase 9 (Homo sapiens) (UniProt P50750+Q96SW2); test: PROTAC activity at CRBN/CDK9 in human MV4-11 cells assessed as maximal degradation of CDK9 at 10 uM measured for 6 hrs by Western blot analysis; assay type: cell-based
[13] = biological target: T3, Protein cereblon/Cyclin-dependent kinase 9 (Homo sapiens); test: PROTAC activity at CRBN/CDK9 in human MV4-11 cells assessed as maximal degradation of CDK9 at 20 uM measured for 6 hrs by Western blot analysis; assay type: cell-based
[14] = biological target: T1, Cyclin-dependent kinase 9
L02 = test: Antiproliferative activity against human L02 cells assessed as reduction in cell viability incubated for 72 hrs by MTT assay; assay type: functional, cell-based; conditions: L02, 72 h
[15] = Cytotoxicity against human HEK293T cells assessed as reduction in cell viability incubated for 72 hrs by MTT assay; assay type: toxicity, cell-based, HEK-293T
[16] = biological target: Cyclin-dependent kinase 7 (Homo sapiens, UniProt P50613); test: Inhibition of CDK7 (unknown origin)
MV4-11 [17] = test: Cytotoxicity against human MV4-11 cells assessed as reduction in cell viability measured for 72 hrs by cellTiter-Glo assay; assay type: functional, cell-based; conditions: MV4-11, 72 h
CDK9/cyclin T1 [18] = biological target: T2, CDK9/cyclin T1; test: Binding affinity to CDK9/cyclin T1 (unknown origin) assessed as inhibition constant; assay type: protein-complex assay
[19] = biological target: Receptor-type tyrosine-protein kinase FLT3 (Homo sapiens, UniProt P36888, ITD); test: Binding affinity FLT3-ITD mutant (unknown origin) assessed as inhibition constant
MV4-11 [20] = test: Cytotoxicity against human MV4-11 cells assessed as cell growth reduction measured for 48 hrs by MTT assay; assay type: functional
MCF7 = test: Antiproliferative activity against human MCF7 cells assessed as reduction in cell viability incubated for 72 hrs by MTT assay; assay type: functional, cell-based; conditions: MCF7, 72 h
HCT-116 = test: Antiproliferative activity against human HCT-116 cells assessed as reduction in cell viability incubated for 72 hrs by CCK-8 assay; assay type: functional, cell-based; conditions: HCT-116, 72 h
K562 = test: Antiproliferative activity against human K562 cells assessed as reduction in cell viability incubated for 72 hrs by CCK-8 assay; assay type: functional, cell-based; conditions: K562, 72 h
Histone deacetylase 1 = Histone deacetylase 1 (Homo sapiens, UniProt Q13547); test: Inhibition of HDAC1 (unknown origin) by fluorescence based assay
[21] = biological target: T1, Cyclin-dependent kinase 9; test: Inhibition of CDK9 (unknown origin) at 100 nM relative to control
[22] = Downregulation of RNAP2 phosphorylation at serine 2 residue in human MV4-11 cells; assay type: functional, cell-based
MV4-11 [23] = test: Antiproliferative activity against human MV4-11 cells assessed as reduction in cell growth incubated for 48 hrs by MTT assay; assay type: functional, cell-based; conditions: MV4-11, 48 h

T1 sequence (P50750 whole entry): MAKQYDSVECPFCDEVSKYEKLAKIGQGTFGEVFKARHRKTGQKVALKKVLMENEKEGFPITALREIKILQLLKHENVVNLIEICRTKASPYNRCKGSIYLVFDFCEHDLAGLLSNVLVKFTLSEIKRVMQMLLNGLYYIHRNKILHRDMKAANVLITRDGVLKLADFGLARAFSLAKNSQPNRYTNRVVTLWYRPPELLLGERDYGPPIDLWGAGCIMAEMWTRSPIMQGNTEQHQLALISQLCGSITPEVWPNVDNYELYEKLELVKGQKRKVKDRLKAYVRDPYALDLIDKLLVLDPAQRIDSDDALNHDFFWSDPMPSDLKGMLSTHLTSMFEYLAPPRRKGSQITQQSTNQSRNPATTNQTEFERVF
Casein kinase I isoform alpha, sequence (P48729 whole entry, canonical isoform): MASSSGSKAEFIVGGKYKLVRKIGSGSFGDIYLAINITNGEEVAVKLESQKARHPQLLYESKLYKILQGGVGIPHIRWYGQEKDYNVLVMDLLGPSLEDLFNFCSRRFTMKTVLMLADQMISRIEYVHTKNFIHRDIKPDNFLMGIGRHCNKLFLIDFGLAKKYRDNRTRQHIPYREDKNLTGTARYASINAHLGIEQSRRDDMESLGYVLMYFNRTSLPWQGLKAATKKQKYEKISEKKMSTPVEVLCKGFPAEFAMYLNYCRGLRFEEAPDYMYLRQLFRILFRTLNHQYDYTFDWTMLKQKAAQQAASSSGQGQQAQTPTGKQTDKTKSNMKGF
T3 sequence (P50750 whole entry, looked up): as the sequence (P50750 whole entry) above
T3 sequence (Q96SW2 whole entry, looked up): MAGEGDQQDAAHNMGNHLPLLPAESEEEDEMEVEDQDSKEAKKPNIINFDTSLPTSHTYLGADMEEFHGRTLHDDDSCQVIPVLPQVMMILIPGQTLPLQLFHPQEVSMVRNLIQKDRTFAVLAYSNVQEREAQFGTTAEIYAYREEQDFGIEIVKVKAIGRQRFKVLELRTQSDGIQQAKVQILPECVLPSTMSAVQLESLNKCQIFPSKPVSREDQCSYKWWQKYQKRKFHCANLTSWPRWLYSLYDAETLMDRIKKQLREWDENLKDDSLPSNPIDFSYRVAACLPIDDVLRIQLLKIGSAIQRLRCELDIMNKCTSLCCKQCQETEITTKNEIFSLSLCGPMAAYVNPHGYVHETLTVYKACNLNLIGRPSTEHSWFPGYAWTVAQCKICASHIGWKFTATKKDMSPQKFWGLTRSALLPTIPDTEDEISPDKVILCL
Cyclin-dependent kinase 4, sequence (P11802 whole entry): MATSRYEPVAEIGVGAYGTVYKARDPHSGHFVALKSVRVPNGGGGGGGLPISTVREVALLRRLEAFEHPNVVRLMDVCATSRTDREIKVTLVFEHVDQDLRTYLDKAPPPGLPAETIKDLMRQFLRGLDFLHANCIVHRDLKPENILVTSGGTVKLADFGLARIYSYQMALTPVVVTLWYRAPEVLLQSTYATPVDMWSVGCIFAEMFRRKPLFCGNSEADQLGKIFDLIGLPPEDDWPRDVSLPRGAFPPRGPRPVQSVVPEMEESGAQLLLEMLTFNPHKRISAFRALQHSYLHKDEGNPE
T2 sequence (O60563 whole entry): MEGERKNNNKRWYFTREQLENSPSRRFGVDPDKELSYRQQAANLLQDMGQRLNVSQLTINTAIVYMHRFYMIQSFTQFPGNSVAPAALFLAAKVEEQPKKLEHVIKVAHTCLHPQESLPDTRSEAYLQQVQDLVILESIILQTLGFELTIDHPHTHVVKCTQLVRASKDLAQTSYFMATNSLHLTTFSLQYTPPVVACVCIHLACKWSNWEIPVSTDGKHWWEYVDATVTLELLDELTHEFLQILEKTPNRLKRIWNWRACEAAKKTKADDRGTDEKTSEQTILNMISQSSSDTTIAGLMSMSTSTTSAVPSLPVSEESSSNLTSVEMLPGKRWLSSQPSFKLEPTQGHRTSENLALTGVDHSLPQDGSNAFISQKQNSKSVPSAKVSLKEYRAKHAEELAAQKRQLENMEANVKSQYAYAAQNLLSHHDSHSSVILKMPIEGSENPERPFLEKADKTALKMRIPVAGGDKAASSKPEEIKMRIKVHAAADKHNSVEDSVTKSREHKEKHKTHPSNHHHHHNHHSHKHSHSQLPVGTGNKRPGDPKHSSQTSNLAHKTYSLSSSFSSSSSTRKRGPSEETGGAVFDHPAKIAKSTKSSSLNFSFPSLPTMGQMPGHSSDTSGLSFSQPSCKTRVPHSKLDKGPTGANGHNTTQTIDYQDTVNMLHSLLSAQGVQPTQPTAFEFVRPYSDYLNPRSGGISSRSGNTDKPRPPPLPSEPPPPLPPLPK
T2 sequence (P50750 whole entry): as the sequence (P50750 whole entry) above
Receptor-type tyrosine-protein kinase FLT3, sequence (P36888 whole entry, looked up, stated change not applied): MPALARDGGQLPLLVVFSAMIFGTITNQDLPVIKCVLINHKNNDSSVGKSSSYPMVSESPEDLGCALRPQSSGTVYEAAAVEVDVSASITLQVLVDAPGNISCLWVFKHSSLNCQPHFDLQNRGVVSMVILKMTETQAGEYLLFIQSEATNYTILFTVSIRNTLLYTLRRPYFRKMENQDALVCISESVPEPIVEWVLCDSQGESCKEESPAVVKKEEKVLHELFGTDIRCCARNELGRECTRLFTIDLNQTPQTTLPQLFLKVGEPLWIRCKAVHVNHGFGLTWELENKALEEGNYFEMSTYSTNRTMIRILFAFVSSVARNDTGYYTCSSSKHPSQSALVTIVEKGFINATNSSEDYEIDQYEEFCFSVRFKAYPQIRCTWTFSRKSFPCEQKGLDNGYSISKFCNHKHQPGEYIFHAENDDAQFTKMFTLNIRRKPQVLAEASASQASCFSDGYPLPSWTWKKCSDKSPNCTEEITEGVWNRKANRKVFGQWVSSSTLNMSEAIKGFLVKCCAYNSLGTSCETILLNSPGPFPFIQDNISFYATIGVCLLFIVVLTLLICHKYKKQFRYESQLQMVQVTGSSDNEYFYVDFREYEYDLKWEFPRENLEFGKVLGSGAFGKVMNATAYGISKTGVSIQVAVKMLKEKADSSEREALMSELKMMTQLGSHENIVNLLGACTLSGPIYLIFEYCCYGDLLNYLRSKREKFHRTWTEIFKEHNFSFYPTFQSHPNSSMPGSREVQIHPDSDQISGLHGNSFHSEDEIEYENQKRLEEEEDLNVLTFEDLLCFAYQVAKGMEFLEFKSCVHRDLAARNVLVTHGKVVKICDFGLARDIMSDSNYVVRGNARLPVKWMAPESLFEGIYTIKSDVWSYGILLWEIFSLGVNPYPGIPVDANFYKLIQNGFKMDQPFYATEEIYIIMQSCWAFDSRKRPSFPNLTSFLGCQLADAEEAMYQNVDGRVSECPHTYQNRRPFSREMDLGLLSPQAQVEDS
Cyclin-dependent kinase 5, sequence (Q00535 whole entry): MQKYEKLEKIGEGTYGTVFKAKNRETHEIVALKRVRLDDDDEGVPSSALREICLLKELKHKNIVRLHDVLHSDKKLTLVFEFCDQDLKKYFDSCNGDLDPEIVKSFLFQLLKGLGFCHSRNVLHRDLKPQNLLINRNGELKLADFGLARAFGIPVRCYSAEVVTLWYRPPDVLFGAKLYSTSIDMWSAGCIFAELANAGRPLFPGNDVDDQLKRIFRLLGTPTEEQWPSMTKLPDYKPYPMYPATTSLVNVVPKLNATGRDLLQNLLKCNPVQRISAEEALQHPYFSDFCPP
Cyclin-dependent kinase 7, sequence (P50613 whole entry): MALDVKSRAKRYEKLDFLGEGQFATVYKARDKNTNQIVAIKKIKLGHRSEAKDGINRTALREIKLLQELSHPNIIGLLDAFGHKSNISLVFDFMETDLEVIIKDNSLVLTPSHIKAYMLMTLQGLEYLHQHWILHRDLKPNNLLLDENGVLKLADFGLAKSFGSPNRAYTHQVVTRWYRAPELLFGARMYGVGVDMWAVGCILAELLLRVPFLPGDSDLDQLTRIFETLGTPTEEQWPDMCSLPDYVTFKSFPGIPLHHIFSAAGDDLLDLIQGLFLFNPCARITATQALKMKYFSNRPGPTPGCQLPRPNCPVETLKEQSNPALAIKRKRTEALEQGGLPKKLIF
Histone deacetylase 1, sequence (Q13547 whole entry): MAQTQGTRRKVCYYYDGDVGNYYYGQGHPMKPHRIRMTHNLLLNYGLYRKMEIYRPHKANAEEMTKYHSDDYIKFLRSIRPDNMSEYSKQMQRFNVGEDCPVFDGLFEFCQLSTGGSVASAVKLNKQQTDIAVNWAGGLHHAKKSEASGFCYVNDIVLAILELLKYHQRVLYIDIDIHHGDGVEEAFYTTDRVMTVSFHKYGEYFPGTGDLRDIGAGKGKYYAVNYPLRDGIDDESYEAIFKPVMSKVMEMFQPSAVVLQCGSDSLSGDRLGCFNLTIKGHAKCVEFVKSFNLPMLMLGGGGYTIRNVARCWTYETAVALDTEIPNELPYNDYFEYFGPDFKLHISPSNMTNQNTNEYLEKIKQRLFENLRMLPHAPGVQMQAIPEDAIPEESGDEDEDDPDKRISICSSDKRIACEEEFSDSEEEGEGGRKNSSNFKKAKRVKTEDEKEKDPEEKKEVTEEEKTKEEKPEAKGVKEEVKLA

COc1ccccc1-c1cccc(Nc2cccc(N3CCCNCC3)c2)n1
IC50 [1]: 0.016 µM | IC50 [2]: 0.574 µM

COc1ccccc1-c1cc(Nc2cccc(CS(N)(=O)=O)c2)ncn1
IC50 [3]: 2.44 µM

N[C@H]1CCN(c2c3c(nc4ccc(-c5ccnc(NC(=O)C6CC6)n5)cc24)CCCC3)C1
IC50 [1]: 0.00223 µM

Cn1ncc(-c2nc(NC3CCC(N)CC3)ncc2F)c1CC1CC1 (stereo unspecified)
Kd [4]: 0.0098 µM | Kd [5]: 0.0054 µM

COc1ccccc1-c1ccnc(Nc2ccc3c(c2)CC(=O)C(C(C)=O)C3C)n1 (stereo unspecified)
IC50 [1]: 0.184 µM

Cn1ncc(-c2nc(NC3CCC(N)CC3)ncc2Cl)c1CC1CC1 (stereo unspecified)
Kd [4]: 0.0053 µM | Kd [5]: 0.004 µM

COc1cc(F)ccc1-c1cc(Nc2cc(C[S@](C)(=N)=O)ccn2)ncc1F
IC50 (MOLM-13 [6]): 0.029 µM

O=c1cc(-c2cccc(O)c2)oc2c1ccc1occc12
IC50 (CDK7/Cyclin H/MNAT1): 0.093 µM | IC50 [7]: > 20 µM

COc1cc(F)ccc1-c1ncnc(Nc2cccc(C[S@](C)(=N)=O)c2)n1 [ATUVECICLIB]
IC50 (MOLM-13 [8]): 0.31 µM

CN(C)C/C=C\C(=O)Nc1ccc(C(=O)N[C@H]2CC[C@H](Nc3cc(-c4cccc(NCc5cccc(F)c5)n4)c(Cl)cn3)CC2)cc1
IC50 (CDK9/cyclin T1 [9]): 0.196 µM | IC50 (A498): < 0.7 µM | IC50 at 48 h [10]: 3.23 µM

Cc1ccc([N+](=O)[O-])cc1S(=O)(=O)N(C)/N=C/c1cnc2ccc(Br)cn12
IC50 (OCI-AML-3): 0.22 µM

CN(C)C(=O)c1cc2cnc(Nc3ccc(S(N)(=O)=O)cc3)nc2n1C1CCCC1
IC5 [11]: 12 nM

O=C1CCC(N2C(=O)c3cccc(OCCCCCOc4ccc(CC(=O)Nc5cc(C6CCC6)[nH]n5)cc4)c3C2=O)C(=O)N1 (stereo unspecified)
Emax [12]: 56% | Emax [13]: 65%

COc1cc(O)c2c(=O)cc(-c3ccc(N4CCN(C)CC4)cc3)oc2c1N1CCNCC1
IC50 [3]: 1.18 µM

N[C@H]1CC[C@H](Nc2cc(-c3cccc(NCc4cccc(F)c4)n3)c(Cl)cn2)CC1
IC50 [1]: < 0.0004 µM | IC50 (A498): 0.057 µM | IC50 at 48 h [10]: 0.076 µM

CC(C)c1c2cc(-c3ccnc(Nc4ccc5c(N6CCN(C)CC6)ncnc5c4)n3)ccc2nn1C
IC50 [11]: 0.0022 µM | IC50 [14]: 0.0019 µM

COc1ccc(C(=O)Nc2cc(-c3ccnc(N4CCC(O)CC4)c3)ccn2)cc1
IC50 (L02): > 0.8 µM | IC50 at 72 h [15]: > 0.8 µM

COCCN[C@H]1CC[C@H](Nc2cc(-c3csc(NCC4(C#N)CCOCC4)n3)c(Cl)cn2)CC1
IC50 [16]: 0.172 µM | IC50 [1]: 0.002 µM | IC50 (MV4-11 [17]): 0.012 µM

Cc1cnc(NC2CCC(N)CC2)nc1-c1cnc2ccc(-c3ccccc3)cn12 (stereo unspecified)
Ki (CDK9/cyclin T1 [18]): 0.008 µM | Ki [19]: 0.013 µM

CCC(CC)c1cc(N[C@H]2CC[C@H](N)C2)n2nccc2n1 [ISTISOCICLIB]
GR50 (MV4-11 [20]): 0.288 µM

COc1ccc(Nc2c(-c3ccoc3)nc3cnccn23)cc1
IC50 (MCF7): 11.6 µM | IC50 (HCT-116): 11.6 µM | IC50 (K562): 11.6 µM

c1ccc(CNc2c(-c3ccncc3)nc3cnccn23)cc1
IC50 (MCF7): 7 µM | IC50 (HCT-116): 7 µM | IC50 (K562): 7 µM

Nc1ccccc1NC(=O)c1ccc(NC(=O)c2n[nH]cc2NC(=O)c2c(Cl)cccc2Cl)cc1
IC50 (Histone deacetylase 1): 0.098 µM | inhibition [21]: 98.3%

CC(=O)N[C@H]1CCC[C@@H](C(=O)Nc2cc(-c3cnn4c3CC(C)(C)C4)c(Cl)cn2)C1
IC50 [22]: 0.013 µM | IC50 (MV4-11 [23]): 0.0137 µM

COC[C@H](C)N[C@H]1CC[C@H](Nc2cc(-c3cccc(NCC4(C#N)CCOCC4)n3)c(Cl)cn2)CC1
IC50 [1]: < 0.000514 µM

CCN1C(=O)COc2c(CN3CCOCC3)cc(Nc3nccc(-c4cccnc4)n3)cc21
IC5 [1]: 6.7 nM
